# Reference: patent publication US20060073995A1, “Animal shampoo” (priority 2004, published 2006)
# Test: Stability study of the shampoo solution at room temperature (active ingredient remaining)
# Type: physicochemical
# Method: Solution was stirred and stability studies were performed at room temperature
substance,measurement,setting,value
N-chloro-4-carboxybenzenesulfonamide disodium salt,N-chloro-4-carboxybenzenesulfonamide disodium salt active ingredient remained,"in Example 1 shampoo (1% active, pH just below 9), after 49 days",84.8%
same,N-chloro-4-carboxybenzenesulfonamide disodium salt active ingredient remained,"in Example 2 shampoo (1% active, pH 9), after 62 days",100%
same,N-chloro-4-carboxybenzenesulfonamide disodium salt active ingredient remained,"in Example 3 shampoo (1% active, pH 9), after 62 days",88.1%
